Laboratory results taken from paper PMC10653066 (ACS Omega, 2023).
Like-named read-outs stand apart in the source and are kept apart here.

Experiments:
YFV 17D [1] = details: read-out: EC50 against YFV; cited from earlier work
YFV 17D [2] = experiment: microbe, parasite or virus in culture; format: cell-based, Yellow fever virus; details: for EC50: Yellow fever virus, Huh-7, read-out: EC50 (YFV 17D, μM)

In the case of `N#Cc1c(Nc2ccc(F)cc2)n[nH]c1NS(=O)(=O)c1ccc2ccccc2c1` [RCB16003, N-(4-Cyano-3-((4-fluorophenyl)amino)-1H-pyrazol-5-yl)naphthalene-2-sulfonamide], the EC50 (YFV 17D [1]) is listed as 3.2 µM.

With `Nc1nc(Nc2ccc(Cl)c(Cl)c2)n(S(=O)(=O)c2ccc3ccccc3c2)n1` [RCB17160, N^5-(3,4-Dichlorophenyl)-1-(naphthalen-2-ylsulfonyl)-1H-1,2,4-triazole-3,5-diamine] the “activity against YFV (words, SAR discussion)” value (“activity against YFV” for short) (YFV 17D [2]) was “did not display any activity”.

In the case of `COc1ccc(Nc2nc(N)n(S(=O)(=O)c3cccc4ccccc34)n2)cc1` [RCB16086, N^3-(4-Methoxyphenyl)-1-(naphthalen-1-ylsulfonyl)-1H-1,2,4-triazole-3,5-diamine], the “activity against YFV” value (YFV 17D [2]) is reported as “complete loss of potency”.

For “4-((1-((6-Acetylnaphthalen-1-yl)sulfonyl)-5-amino-1H-1,2,4-triazol-3-yl)amino)benzonitrile [RCB22056]”, the “activity against YFV” value (YFV 17D [2]) was “inactive”.

In the case of `CC(=O)c1ccc2c(S(=O)(=O)n3nc(Nc4ccc(C#N)c(Cl)c4)nc3N)cccc2c1` [RCB22055, 4-((1-((6-Acetylnaphthalen-1-yl)sulfonyl)-5-amino-1H-1,2,4-triazol-3-yl)amino)-2-chlorobenzonitrile], the “activity against YFV” value (YFV 17D [2]) is reported as “low micromolar activity”.

`N#Cc1c(Nc2ccc(Cl)cc2)n[nH]c1NS(=O)(=O)c1ccc2ccccc2c1` [RCB16002, N-(3-((4-Chlorophenyl)amino)-4-cyano-1H-pyrazol-5-yl)naphthalene-2-sulfonamide] gave an EC50 (YFV 17D [2]) of 7.1 µM.

For `N#Cc1c(Nc2ccc(F)c(F)c2)n[nH]c1NS(=O)(=O)c1ccc2ccccc2c1` [RCB16004, N-(4-Cyano-3-((3,4-difluorophenyl)amino)-1H-pyrazol-5-yl)naphthalene-2-sulfonamide], the EC50 (YFV 17D [2]) was > 36 µM.
